Assay results taken from patent US11639352B2, “Benzothiazole compounds for the treatment of autoimmune diseases” (Hoffmann-La Roche Inc., priority 2018, dated 2023).

Target: T1, human TLR8 (Homo sapiens, UniProt Q9NR97)
T1 sequence (Q9NR97 27-1041): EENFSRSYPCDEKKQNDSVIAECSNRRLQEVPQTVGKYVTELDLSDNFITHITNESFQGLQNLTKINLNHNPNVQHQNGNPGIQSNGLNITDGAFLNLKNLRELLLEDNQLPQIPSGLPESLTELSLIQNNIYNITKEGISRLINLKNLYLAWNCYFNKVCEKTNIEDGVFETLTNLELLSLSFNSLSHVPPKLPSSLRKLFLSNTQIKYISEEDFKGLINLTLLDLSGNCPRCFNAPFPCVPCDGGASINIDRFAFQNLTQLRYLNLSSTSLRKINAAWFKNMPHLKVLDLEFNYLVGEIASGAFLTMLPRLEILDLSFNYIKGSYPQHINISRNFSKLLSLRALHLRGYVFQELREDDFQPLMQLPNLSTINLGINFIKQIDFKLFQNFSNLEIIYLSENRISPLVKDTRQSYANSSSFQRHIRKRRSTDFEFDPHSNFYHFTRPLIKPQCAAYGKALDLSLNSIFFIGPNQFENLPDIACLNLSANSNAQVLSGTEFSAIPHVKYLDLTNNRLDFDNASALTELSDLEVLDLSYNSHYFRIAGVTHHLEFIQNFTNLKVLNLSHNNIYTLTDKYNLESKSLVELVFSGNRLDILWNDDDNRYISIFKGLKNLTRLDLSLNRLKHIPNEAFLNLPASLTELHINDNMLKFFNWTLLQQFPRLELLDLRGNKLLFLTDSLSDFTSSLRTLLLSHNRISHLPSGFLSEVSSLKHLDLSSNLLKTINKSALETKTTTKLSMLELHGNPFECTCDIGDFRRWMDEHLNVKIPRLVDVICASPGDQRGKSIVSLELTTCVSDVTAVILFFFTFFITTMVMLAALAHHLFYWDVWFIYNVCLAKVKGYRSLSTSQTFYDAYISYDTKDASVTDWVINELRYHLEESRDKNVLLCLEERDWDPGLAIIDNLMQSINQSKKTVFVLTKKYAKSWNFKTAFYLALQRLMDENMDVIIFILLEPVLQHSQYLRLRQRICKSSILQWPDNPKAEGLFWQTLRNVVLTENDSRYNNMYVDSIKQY
Experiment: HEK293-Blue-hTLR-8 cells assay (SEAP reporter, R848 stimulation)
Assay type: cell-based
Conditions: HEK293-Blue-hTLR8 cells, R848 ligand, 20 hrs incubation, antagonist
Procedure: The following tests were carried out in order to determine the activity of the compounds of formula (I) in HEK293-Blue-hTLR-7/8/9 cells assay.
HEK293-Blue-hTLR-8 Cells Assay:
A stable HEK293-Blue-hTLR-8 cell line was purchased from InvivoGen (Cat. #: hkb-htlr8, San Diego, Calif., USA). These cells were originally designed for studying the stimulation of human TLR8 by monitoring the activation of NF-κB. A SEAP (secreted embryonic alkaline phosphatase) reporter gene was placed under the control of the IFN-β minimal promoter fused to five NF-κB and AP-1-binding sites. The SEAP was induced by activating NF-κB and AP-1 via stimulating HEK-Blue hTLR8 cells with TLR8 ligands. Therefore the reporter expression was declined by TLR8 antagonist under the stimulation of a ligand, such as R848, for incubation of 20 hrs. The cell culture supernatant SEAP reporter activity was determined using QUANTI-Blue™ kit (Cat. #: rep-qb1, Invivogen, San Diego, Calif., USA) at a wavelength of 640 nm, a detection medium that turns purple or blue in the presence of alkaline phosphatase.
HEK293-Blue-hTLR8 cells were incubated at a density of 250,000˜450,000 cells/mL in a volume of 170 μL in a 96-well plate in Dulbecco's Modified Eagle's medium (DMEM) containing 4.5 g/L glucose, 50 U/mL penicillin, […], […], 2 mM L-glutamine, 10% (v/v) heat-inactivated fetal bovine serum with addition of 20 μL test compound in a serial dilution in the presence of final DMSO at 1% and 10 μL of 60 uM R848 in above DMEM, perform incubation under 37° C. in a CO2 incubator for 20 hrs. Then 20 μL of the supernatant from each well was incubated with 180 μL Quanti-blue substrate solution at 37° C. for 2 hrs and the absorbance was read at 620˜655 nm using a spectrophotometer. The signalling pathway that TLR8 activation leads to downstream NF-κB activation has been widely accepted, and therefore similar reporter assay was modified for evaluating TLR8 antagonist.

| Compound | IC50 [nM] |
| --- | --- |
| C[C@@H]1CN(c2ccc(C#N)c3ncsc23)C[C@H](CN2[C@@H]3CC[C@H]2C[C@H](N)C3)O1 [Example 9, Exo-7-[(2S,6R)-2-[[(1S,5R)-3-amino-8-azabicyclo[3.2.1]octan-8-yl]methyl]-6-methyl-morpholin-4-yl]-1,3-benzothiazole-4-carbonitrile] | 8 |
| C[C@@H]1CN(c2ccc(C#N)c3ncsc23)C[C@H](CN2[C@@H]3CC[C@H]2C[C@@H](N)C3)O1 [Example 8, Endo-7-[(2S,6R)-2-[[(1R,5S)-3-amino-8-azabicyclo[3.2.1]octan-8-yl]methyl]-6-methyl-morpholin-4-yl]-1,3-benzothiazole-4-carbonitrile] | < 3 |
| C[C@@H]1CN(c2ccc(C#N)c3ncsc23)C[C@H](CN2CCC3(CCCN(C)C3)CC2)O1 [Example 10, 7-[(2R,6S)-2-methyl-6-[(2-methyl-2,9-diazaspiro[5.5]undecan-9-yl)methyl]morpholin-4-yl]-1,3-benzothiazole-4-carbonitrile] | < 3 |
| C[C@@H]1CN(c2ccc(C#N)c3ncsc23)C[C@H](CN2CCC3(CCCNC3)CC2)O1 [Example 3, 7-[(2S,6R)-2-(2,9-diazaspiro[5.5]undecan-9-ylmethyl)-6-methyl-morpholin-4-yl]-1,3-benzothiazole-4-carbonitrile] | 12 |
| C[C@@H]1CN(c2ccc(C#N)c3ncsc23)C[C@H](CN2CCC3(CCNC3)CC2)O1 [Example 6, 7-[(2S,6R)-2-(2,8-diazaspiro[4.5]decan-8-ylmethyl)-6-methyl-morpholin-4-yl]-1,3-benzothiazole-4-carbonitrile] | 22 |
| C[C@@H]1CN(c2ccc(C#N)c3ncsc23)C[C@H](C(=O)NC2CCN(C)CC2)O1 [Example 11, (2R,6R)-4-(4-cyano-1,3-benzothiazol-7-yl)-6-methyl-N-(1-methyl-4-piperidyl)morpholine-2-carboxamide] | < 3 |
| C[C@@H]1CN(c2ccc(C#N)c3ncsc23)C[C@H](CN2CCC(N3CCCCC3)CC2)O1 [Example 7, 7-[(2R,6S)-2-methyl-6-[[4-(1-piperidyl)-1-piperidyl]methyl]morpholin-4-yl]-1,3-benzothiazole-4-carbonitrile] | < 3 |
| C[C@@H]1CN(c2ccc(C#N)c3ncsc23)C[C@H](CN2CCC3(CCCNC3)C2)O1 (stereo partly drawn) [Example 1, 7-[(2S,6R)-2-(2,9-diazaspiro[4.5]decan-2-ylmethyl)-6-methyl-morpholin-4-yl]-1,3-benzothiazole-4-carbonitrile] | < 3 |
| C[C@@H]1CN(c2ccc(C#N)c3ncsc23)C[C@H](CN2CCC(N)CC2)O1 [Example 2, 7-[(2S,6R)-2-[(4-amino-1-piperidyl)methyl]-6-methyl-morpholin-4-yl]-1,3-benzothiazole-4-carbonitrile] | 5 |
| C[C@@H]1CN(c2ccc(C#N)c3ncsc23)C[C@H](CN2CCC3(CCNCC3)CC2)O1 [Example 5, 7-[(2S,6R)-2-(3,9-diazaspiro[5.5]undecan-3-ylmethyl)-6-methyl-morpholin-4-yl]-1,3-benzothiazole-4-carbonitrile] | 107 |
| C[C@@H]1CN(c2ccc(C#N)c3ncsc23)C[C@H](CN2CC3(CCCNC3)C2)O1 [Example 4, 7-[(2S,6R)-2-(2,8-diazaspiro[3.5]nonan-2-ylmethyl)-6-methyl-morpholin-4-yl]-1,3-benzothiazole-4-carbonitrile] | 14 |
| C[C@@H]1CN(c2ccc(C#N)c3ncsc23)C[C@H](C(=O)NCC2CN(C)CCO2)O1 (stereo partly drawn) [Example 12, (2R,6R)-4-(4-cyano-1,3-benzothiazol-7-yl)-6-methyl-N-[(4-methylmorpholin-2-yl)methyl]morpholine-2-carboxamide] | < 3 |
